Assay results as given in publication PMC9697818, “Design, Synthesis and Biological Assessment of Rhodanine-Linked Benzenesulfonamide Derivatives as Selective and Potent Human Carbonic Anhydrase Inhibitors” (Molecules, 2022).

Legend:
Assay in all cases: stopped-flow CO2 hydration assay
Assay type in all cases: biochemical
[1] = molecular target: T1, hCA I (Homo sapiens, UniProt P00915)
T1 construct: gene CA1; recombinant, cytosolic isoform
In short: (§1)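 Recombinant human carbonic anhydrase isozymes were tested for inhibition by stopped-flow tracking of enzyme-catalysed CO2 hydration. Over 5–10 s, reactions containing 5–12 nM enzyme, 0.2 mM Phenol Red read at 557 nm, 10 mM Hepes (pH 7.4), 10 mM NaClO4 and CO2-saturated water at 25 °C as substrate were followed, after inhibitor and enzyme had been preincubated for 10 min at room temperature. Inhibitor stocks of 10 mM in DMSO-water 1:1 were diluted in assay buffer down to 0.01 nM, giving at least seven concentrations. Inhibition constants (Ki) were obtained by non-linear least-squares fitting with the Cheng–Prusoff equation and represent means of at least three determinations.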

[2] = molecular target: T2, hCA II (Homo sapiens, UniProt P00918)
T2 construct: gene CA2; recombinant, cytosolic isoform
In short: as §1

[3] = molecular target: T3, hCA IX (Homo sapiens, UniProt Q16790)
T3 construct: gene CA9; recombinant, tumor-associated transmembrane isoform
In short: as §1

[4] = molecular target: T4, hCA XII (Homo sapiens, UniProt O43570)
T4 construct: gene CA12; recombinant, tumor-associated transmembrane isoform
T4 sequence (O43570 30-289 limits assumed): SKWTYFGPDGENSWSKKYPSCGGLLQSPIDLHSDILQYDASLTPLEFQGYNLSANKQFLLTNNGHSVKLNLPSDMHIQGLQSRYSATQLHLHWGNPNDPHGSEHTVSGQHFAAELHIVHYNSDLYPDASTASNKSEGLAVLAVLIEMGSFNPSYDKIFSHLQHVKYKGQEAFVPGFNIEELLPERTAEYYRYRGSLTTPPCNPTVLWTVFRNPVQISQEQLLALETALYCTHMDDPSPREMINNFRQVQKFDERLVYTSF
In short: as §1

T1 sequence (P00915 2-261): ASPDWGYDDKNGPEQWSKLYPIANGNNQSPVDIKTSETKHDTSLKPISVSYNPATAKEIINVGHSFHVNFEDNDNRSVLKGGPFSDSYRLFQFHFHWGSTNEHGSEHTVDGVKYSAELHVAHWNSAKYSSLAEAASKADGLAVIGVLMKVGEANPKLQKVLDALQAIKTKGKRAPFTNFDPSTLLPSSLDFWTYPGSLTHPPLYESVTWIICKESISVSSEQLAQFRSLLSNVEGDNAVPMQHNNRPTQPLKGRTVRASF

Ki [1] | Ki [2] | Ki [3] | Ki [4] | SMILES
224 nM | 140 nM | 14.3 nM | 65.4 nM | NS(=O)(=O)c1ccc(NC(=O)CN2C(=O)/C(=C\c3ccccc3F)SC2=S)cc1 [7d, (E)-2-(5-(2-Fluorobenzylidene)-4-oxo-2-thioxothiazolidin-3-yl)-N-(4-sulfamoylphenyl)acetamide]
854 nM | 77.5 nM | 8 nM | 9.6 nM | NS(=O)(=O)c1ccc(NC(=O)CN2C(=O)/C(=C\c3ccc(C(F)(F)F)cc3)SC2=S)cc1 [7e, (E)-2-(4-Oxo-2-thioxo-5-(4-(trifluoromethyl)benzylidene)thiazolidin-3-yl)-N-(4-sulfamoylphenyl)acetamide]
125 nM | 56.6 nM | 7.3 nM | 9 nM | N#Cc1ccc(/C=C2/SC(=S)N(CC(=O)Nc3ccc(S(N)(=O)=O)cc3)C2=O)cc1 [7i, (E)-2-(5-(4-Cyanobenzylidene)-4-oxo-2-thioxothiazolidin-3-yl)-N-(4-sulfamoylphenyl)acetamide]
228 nM | 46.1 nM | 15.8 nM | 73.6 nM | COc1cccc(/C=C2/SC(=S)N(CC(=O)Nc3ccc(S(N)(=O)=O)cc3)C2=O)c1 [7j, (E)-2-(5-(3-Methoxybenzylidene)-4-oxo-2-thioxothiazolidin-3-yl)-N-(4-sulfamoylphenyl)acetamide]
471 nM | 55.5 nM | 28.2 nM | 47 nM | NS(=O)(=O)c1ccc(NC(=O)CN2C(=O)/C(=C\c3cccc(Oc4ccccc4)c3)SC2=S)cc1 [7m, (E)-2-(4-Oxo-5-(3-phenoxybenzylidene)-2-thioxothiazolidin-3-yl)-N-(4-sulfamoylphenyl)acetamide]
77.5 nM | 9.6 nM | 7.2 nM | 30.2 nM | COc1cc(/C=C2/SC(=S)N(CC(=O)Nc3ccc(S(N)(=O)=O)cc3)C2=O)cc(OC)c1O [7t, (E)-2-(5-(4-Hydroxy-3,5-dimethoxybenzylidene)-4-oxo-2-thioxothiazolidin-3-yl)-N-(4-sulfamoylphenyl)acetamide]
70.6 nM | 8.9 nM | 7.7 nM | 9.5 nM | NS(=O)(=O)c1ccc(NC(=O)CN2C(=O)/C(=C\c3ccc([N+](=O)[O-])cc3)SC2=S)cc1 [7u, (E)-2-(5-(4-Nitrobenzylidene)-4-oxo-2-thioxothiazolidin-3-yl)-N-(4-sulfamoylphenyl)acetamide]
41.6 nM | 4.3 nM | 4.7 nM | 56.2 nM | NS(=O)(=O)c1ccc(NC(=O)CN2C(=O)/C(=C3/C(=O)Nc4ccccc43)SC2=S)cc1 [9a, (Z)-2-(4-Oxo-5-(2-oxoindolin-3-ylidene)-2-thioxothiazolidin-3-yl)-N-(4-sulfamoylphenyl)acetamide]
92.2 nM | 5.5 nM | 8.9 nM | 40.6 nM | Cc1ccc2c(c1)/C(=C1/SC(=S)N(CC(=O)Nc3ccc(S(N)(=O)=O)cc3)C1=O)C(=O)N2 [9b, (Z)-2-(5-(5-Methyl-2-oxoindolin-3-ylidene)-4-oxo-2-thioxothiazolidin-3-yl)-N-(4-sulfamoylphenyl)acetamide]
35.8 nM | 5.2 nM | 6 nM | 26.3 nM | NS(=O)(=O)c1ccc(NC(=O)CN2C(=O)/C(=C3/C(=O)Nc4ccc(Cl)cc43)SC2=S)cc1 [9d, (Z)-2-(5-(5-Chloro-2-oxoindolin-3-ylidene)-4-oxo-2-thioxothiazolidin-3-yl)-N-(4-sulfamoylphenyl)acetamide]

The remaining lines, values behind:

SMILES | Ki [1] | Ki [2] | Ki [3] | Ki [4]
NS(=O)(=O)c1ccc(NC(=O)CN2C(=O)/C(=C\c3ccccc3)SC2=S)cc1 [7a, (E)-2-(5-Benzylidene-4-oxo-2-thioxothiazolidin-3-yl)-N-(4-sulfamoylphenyl)-acetamide] | 185 nM | 69.2 nM | 8.7 nM | 32.5 nM
NS(=O)(=O)c1ccc(NC(=O)CN2C(=O)/C(=C\c3ccc(Cl)cc3)SC2=S)cc1 [7b, (E)-2-(5-(4-Chlorobenzylidene)-4-oxo-2-thioxothiazolidin-3-yl)-N-(4-sulfamoylphenyl)acetamide] | 349 nM | 51.6 nM | 35.7 nM | 9.1 nM
NS(=O)(=O)c1ccc(NC(=O)CN2C(=O)/C(=C\c3ccc(OC(F)(F)F)cc3)SC2=S)cc1 [7c, (E)-2-(4-Oxo-2-thioxo-5-(4-(trifluoromethoxy)benzylidene)thiazolidin-3-yl)-N-(4-sulfamoylphenyl)acetamide] | 2410 nM | 954 nM | 9.7 nM | 158 nM
C=CCOc1ccc(/C=C2/SC(=S)N(CC(=O)Nc3ccc(S(N)(=O)=O)cc3)C2=O)cc1 [7f, (E)-2-(5-(4-(Allyloxy)benzylidene)-4-oxo-2-thioxothiazolidin-3-yl)-N-(4-sulfamoylphenyl)acetamide] | 688 nM | 320 nM | 5.6 nM | 67.6 nM
COc1cc(/C=C2/SC(=S)N(CC(=O)Nc3ccc(S(N)(=O)=O)cc3)C2=O)cc(OC)c1OC [7g, (E)-2-(4-Oxo-2-thioxo-5-(3,4,5-trimethoxybenzylidene)thiazolidin-3-yl)-N-(4-sulfamoylphenyl)acetamide] | 173 nM | 31.6 nM | 4.2 nM | 46 nM
CCOc1cc(/C=C2/SC(=S)N(CC(=O)Nc3ccc(S(N)(=O)=O)cc3)C2=O)ccc1O [7h, (E)-2-(5-(3-Ethoxy-4-hydroxybenzylidene)-4-oxo-2-thioxothiazolidin-3-yl)-N-(4-sulfamoylphenyl)acetamide] | 22.4 nM | 7.3 nM | 5.6 nM | 63.7 nM
COc1ccc(/C=C2/SC(=S)N(CC(=O)Nc3ccc(S(N)(=O)=O)cc3)C2=O)cc1 [7k, (E)-2-(5-(4-Methoxybenzylidene)-4-oxo-2-thioxothiazolidin-3-yl)-N-(4-sulfamoylphenyl)acetamide] | 78.6 nM | 12.7 nM | 9.3 nM | 58.2 nM
CC(C)c1ccc(/C=C2/SC(=S)N(CC(=O)Nc3ccc(S(N)(=O)=O)cc3)C2=O)cc1 [7l, (E)-2-(5-(4-Isopropylbenzylidene)-4-oxo-2-thioxothiazolidin-3-yl)-N-(4-sulfamoylphenyl)acetamide] | 430 nM | 68.6 nM | 51.5 nM | 41.6 nM
COc1ccc(/C=C2/SC(=S)N(CC(=O)Nc3ccc(S(N)(=O)=O)cc3)C2=O)cc1OC [7n, (E)-2-(5-(3,4-Dimethoxybenzylidene)-4-oxo-2-thioxothiazolidin-3-yl)-N-(4-sulfamoylphenyl)acetamide] | 84 nM | 15.4 nM | 8.1 nM | 38.5 nM
COc1cc(OC)c(OC)cc1/C=C1/SC(=S)N(CC(=O)Nc2ccc(S(N)(=O)=O)cc2)C1=O [7o, (E)-2-(4-Oxo-2-thioxo-5-(2,4,5-trimethoxybenzylidene)thiazolidin-3-yl)-N-(4-sulfamoylphenyl)acetamide] | 339 nM | 176 nM | 34.7 nM | 9.5 nM
COc1ccc(/C=C2/SC(=S)N(CC(=O)Nc3ccc(S(N)(=O)=O)cc3)C2=O)c(OC)c1 [7p, (E)-2-(5-(2,4-Dimethoxybenzylidene)-4-oxo-2-thioxothiazolidin-3-yl)-N-(4-sulfamoylphenyl)acetamide] | 386 nM | 8 nM | 17.7 nM | 9.8 nM
COc1cc(OC)c(/C=C2/SC(=S)N(CC(=O)Nc3ccc(S(N)(=O)=O)cc3)C2=O)c(OC)c1 [7q, (E)-2-(4-Oxo-2-thioxo-5-(2,4,6-trimethoxybenzylidene)thiazolidin-3-yl)-N-(4-sulfamoylphenyl)acetamide] | 298 nM | 53.1 nM | 23.6 nM | 26.3 nM
NS(=O)(=O)c1ccc(NC(=O)CN2C(=O)/C(=C\c3ccc(F)c(F)c3)SC2=S)cc1 [7r, (E)-2-(5-(3,4-Difluorobenzylidene)-4-oxo-2-thioxothiazolidin-3-yl)-N-(4-sulfamoylphenyl)acetamide] | 213 nM | 19.6 nM | 13.5 nM | 9.6 nM
NS(=O)(=O)c1ccc(NC(=O)CN2C(=O)/C(=C\c3cccc([N+](=O)[O-])c3)SC2=S)cc1 [7s, (E)-2-(5-(3-Nitrobenzylidene)-4-oxo-2-thioxothiazolidin-3-yl)-N-(4-sulfamoylphenyl)acetamide] | 77.9 nM | 14.6 nM | 8.4 nM | 9 nM
NS(=O)(=O)c1ccc(NC(=O)CN2C(=O)/C(=C3/C(=O)Nc4ccc(C(F)(F)F)cc43)SC2=S)cc1 [9c, (Z)-2-(4-Oxo-5-(2-oxo-5-(trifluoromethyl)indolin-3-ylidene)-2-thioxothiazolidin-3-yl)-N-(4-sulfamoylphenyl)acetamide] | 319 nM | 67.8 nM | 13.3 nM | 37.8 nM
